Source: patent US20060100269A1, “Use of 10-aminoaliphatyl-dibenz[b,f]oxepines for the treatment of degenerative ocular disorders” (priority 2003, published 2006)

What was measured:
[1] = tested on: retinal ganglion cells (RGCs); experiment: transient retinal ischemia by selective ligature of ophthalmic vessels, RGC rescue; assay type: in vivo; settings: adult Sprague-Dawley rats; 60 minutes ischemia causing 30% RGC death seven days after ischemia; intraperitoneal injection, 0.005 mg/kg
Description: In particular, in adult Sprague-Dawley rats, transient retinal ischemia induced by selective ligature of ophthalmic vessels for 60 minutes, causes a 30% RGC death seven days after ischemia.

[2] = tested on: retinal ganglion cells (RGCs); experiment: crush of the rat optic nerve, RGC loss and apoptotic nuclei; assay type: in vivo; settings: 0.1 mg/kg subcutaneously, assessed 18 days after optic nerve crush

For `C#CCN(C)CC1=Cc2ccccc2Oc2ccccc21.O=C(O)/C=C\C(=O)O` [N-(dibenz[b,f]oxepin-10-ylmethyl)-N-methyl-N-prop-2-ynylamine hydrogen maleate], which RGC rescue rate [1] is on record?
The RGC rescue rate was 45%.

What about the “increase in apoptotic nuclei” value [2] of the same compound?
Its value is “significantly reduces”.

And the “loss of RGCs” value [2]?
The value was “significantly reduces”.
